Test results from paper PMC12461627, “Locking CBL TKBD in its native conformation presents a novel therapeutic opportunity in mutant CBL-dependent leukemia” (Molecular Therapy, 2025).
Read-outs that look alike come from different tables or passages of the source. Square brackets hold non-standard residues; d marks the D form. Ends that are not written are not given here. pY = N[C@@H](Cc1ccc(OP(=O)(O)O)cc1)C(=O)O

Assays:
[1] = Solubility as noted by the authors; type: physicochemical; conditions: qualitative, aqueous solution
[2] = system: MOLM-13Luc/CBLock cells in NSG mice
CBL mutant 70Z = test: GFP-trap co-immunoprecipitation with Myc-tagged CBL-70Z in HEK293 cells; type: cell-based; conditions: expressed as GFP-CBLock variants in HEK293 cells
Experimental: The cells were pelleted and lysed in IP lysis buffer (50 mM Tris-HCl pH 7.5, 150 mM NaCl, 1 mM EDTA, 1% IGEPAL CA-630, 10% glycerol, 0.5 mM DTT, and cOmplete protease inhibitor cocktail) to prepare the whole cell lysates. Immunoprecipitation and immunoblotting were performed using the lysates as described before.[28] For each regular immunoprecipitation reaction, 1 mg freshly prepared whole cell lysate was incubated with primary antibodies at 4 °C for 4 h on a rotatory shaker. […] Alternatively for each reaction, 1 mg freshly prepared whole cell lysate was incubated overnight with antibody- or immunoglobulin (Ig)G-conjugated agarose beads. The next day beads were washed three times with IP lysis buffer and once with PBS. […] This was followed by similar washing steps as mentioned before. The beads were then either processed for mass spectrometry or immunoprecipitated proteins were eluted at 95 °C in 40 μL 2X loading dye. A previous method was used to perform immunoblotting[51] and the immunoblots were scanned using an Odyssey CLx Imaging System (LI-COR Biosciences).

[3] = system: CBL (47–435) R139C/D435C variant (diCys); test: Disulfide bond formation assay; type: biochemical; conditions: CBL 47–435 diCys, SDS-PAGE, n = 3
Experimental: CBL variant mixtures were prepared at room temperature as described previously,[7] keeping aside a sample portion for zero-time point. Removal of DTT using a Zeba spin desalting column (Thermo Scientific) initiated the reactions. At indicated time points, samples were removed and quenched with 20 mM N-ethylmaleimide (NEM; Sigma) for 10 min and mixed with 4X SDS loading buffer. DTT (100 mM) was added to prepare the reduced samples. The samples were resolved by SDS-PAGE and the gels stained with Coomassie blue were scanned. The disulfide-bonded (D) and unmodified species (U) were quantified using the Image Studio software. Three independent experiments were performed, and curves for the disulfide bond fractions from each reaction were generated using GraphPad Prism.

Compound	Binding to CBL mutant 70Z (CBL mutant 70Z)	Effect on diCys disulfide bond formation [3]	other results
CC[C@H](C)[C@H](NC(=O)[C@H](Cc1c[nH]c2ccccc12)NC(=O)[C@H](CO)NC(=O)[C@H](CC(=O)O)NC(=O)[C@H](CCSC)NC(=O)[C@H](CCC(=O)O)NC(=O)[C@H](CCC(=O)O)NC(=O)[C@@H](NC(=O)[C@@H](NC(=O)[C@@H](N)CCSC)[C@@H](C)O)C(C)C)C(=O)N[C@@H](CCCCN)C(=O)N[C@@H](CO)C(=O)N[C@@H](Cc1c[nH]c2ccccc12)C(=O)N[C@@H](CC(=O)O)C(=O)N[C@@H](CCC(N)=O)C(=O)N[C@@H](CCCNC(=N)N)C(=O)O [CBLock]	–	–	Solubility [1]: enhanced solubility in aqueous solution; Body weight ([2]; cohort two): no marked changes in body weights; Body weight ([2]; first experiment, dox vs vehicle): no obvious difference in body weight
CBLock-DM: CBLock mutant D7A/I10A expressed as GFP or iRFP fusion (MTVEEMASWAKSWDQR; also: fused to GFP or iRFP)	failed to bind the CBL mutant 70Z	–	–
IKDWQDRSVWESMTME [CBLock-Sc2]	failed to bind the CBL mutant 70Z	–	–
SMEKTDQWRMVEIDSW [CBLock-Sc1]	failed to bind the CBL mutant 70Z	–	–
STVSFNP[pY]EPTGGPWG [pSYK, phosphotyrosine substrate peptide from SYK]	–	prevented formation of the diCys disulfide bond	–
TLNSDG(p)YTPEPA [pZAP70, phosphotyrosine substrate peptide from ZAP70]	–	prevented formation of the diCys disulfide bond	–
